Values quoted from earlier work in patent publication US12221461B2, “Saponin adjuvant and evaluation method thereof” (OBI PHARMA, INC., priority 2018, dated 2025).

tested on: antibody levels; settings: previous study, Kensil et al., J. Immunol. 146, 431-437, 1991

Substance	boost of antibody levels (adjuvant effect)
QS-17	able to dramatically boost antibody levels
QS-18	able to dramatically boost antibody levels
QS-21	able to dramatically boost antibody levels
